Measurements taken from patent US20230365592A1 (Agios Pharmaceuticals, Inc., priority 2022, published 2023).

What follows are molecules tested against T1, human PAH with the R408W mutation (Homo sapiens, UniProt P00439, R408W) (assay: Cell Based Phenylalanine Flux Assay). Conditions: A375 cells expressing human R408W PAH; 24 hrs compound incubation; 13C-Tyrosine by LC-MS; average where tested multiple times; read-out: AC50.
T1 construct: expressed in transfected cells
T1 sequence (P00439 1-452 R408W): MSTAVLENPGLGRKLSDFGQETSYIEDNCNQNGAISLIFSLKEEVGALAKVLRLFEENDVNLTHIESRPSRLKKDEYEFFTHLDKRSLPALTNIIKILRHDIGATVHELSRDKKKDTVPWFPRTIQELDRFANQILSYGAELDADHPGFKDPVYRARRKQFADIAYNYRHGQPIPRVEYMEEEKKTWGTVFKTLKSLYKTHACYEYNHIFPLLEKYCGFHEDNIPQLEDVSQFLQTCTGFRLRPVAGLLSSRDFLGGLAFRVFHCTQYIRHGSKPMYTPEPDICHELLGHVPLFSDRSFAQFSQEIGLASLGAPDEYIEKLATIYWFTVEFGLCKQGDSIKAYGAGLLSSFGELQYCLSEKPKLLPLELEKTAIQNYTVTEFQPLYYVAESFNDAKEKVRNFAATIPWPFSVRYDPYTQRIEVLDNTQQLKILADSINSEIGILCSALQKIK
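Also: after compound treatment, cells received sepiapterin plus isotope-labelled Phenylalanine for 4 hours, then labelled Tyrosine in the medium was quantified, 10-point 2-fold dilution series run in duplicate.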

SMILES	AC50 [nM]
O=C(c1cnn2cc(C3CC3)ccc12)N1CCc2[nH]cnc2[C@H]1c1cc2c(C(F)F)cccn2n1 [Example 1742, (S)-(6-cyclopropylpyrazolo[1,5-a]pyridin-3-yl)(4-(4-(difluoromethyl)pyrazolo[1,5-a]pyridin-2-yl)-6,7-dihydro-1H-imidazo[4,5-c]pyridin-5(4H)-yl)methanone]	< 500
O=C(c1cnn2cc(C3CC3)ccc12)N1CCc2[nH]cnc2[C@@H]1c1cc2c(C(F)F)cccn2n1 [Example 1743, (R)-(6-cyclopropylpyrazolo[1,5-a]pyridin-3-yl)(4-(4-(difluoromethyl)pyrazolo[1,5-a]pyridin-2-yl)-6,7-dihydro-1H-imidazo[4,5-c]pyridin-5(4H)-yl)methanone]	1000 to 5000
O=C(c1cnn2cc(C3CC3)ccc12)N1CCc2[nH]cnc2[C@H]1c1cc2cccc(Cl)n2n1 [Example 1744, (S)-(4-(7-chloropyrazolo[1,5-a]pyridin-2-yl)-6,7-dihydro-1H-imidazo[4,5-c]pyridin-5(4H)-yl)(6-cyclopropylpyrazolo[1,5-a]pyridin-3-yl)methanone]	1000 to 5000
O=C(c1cnn2cc(C3CC3)ccc12)N1CCc2[nH]cnc2[C@@H]1c1cc2cccc(Cl)n2n1 [Example 1745, (R)-(4-(7-chloropyrazolo[1,5-a]pyridin-2-yl)-6,7-dihydro-1H-imidazo[4,5-c]pyridin-5(4H)-yl)(6-cyclopropylpyrazolo[1,5-a]pyridin-3-yl)methanone]	> 5000
CN(C)c1ccc2c(C(=O)N3CCc4[nH]cnc4[C@@H]3c3cc4c(C(F)(F)F)cccn4n3)cnn2c1 [Example 1747, (R)-(6-(dimethylamino)pyrazolo[1,5-a]pyridin-3-yl)(4-(4-(trifluoromethyl)pyrazolo[1,5-a]pyridin-2-yl)-6,7-dihydro-1H-imidazo[4,5-c]pyridin-5(4H)-yl)methanone]	> 5000
FC(F)(F)c1cnc(N2CCc3[nH]cnc3[C@H]2c2cc3ccccn3n2)nc1 [Example 1752, (S)-4-(pyrazolo[1,5-a]pyridin-2-yl)-5-(5-(trifluoromethyl)pyrimidin-2-yl)-4,5,6,7-tetrahydro-1H-imidazo[4,5-c]pyridine]	< 500
Cc1cccn2nc([C@@H]3c4nc[nH]c4CCN3c3ncc(C(F)(F)F)cn3)cc12 [Example 1754, (S)-4-(4-methylpyrazolo[1,5-a]pyridin-2-yl)-5-(5-(trifluoromethyl)pyrimidin-2-yl)-4,5,6,7-tetrahydro-1H-imidazo[4,5-c]pyridine]	< 500
Cc1cccn2nc([C@H]3c4nc[nH]c4CCN3c3ncc(C(F)(F)F)cn3)cc12 [Example 1755, (R)-4-(4-methylpyrazolo[1,5-a]pyridin-2-yl)-5-(5-(trifluoromethyl)pyrimidin-2-yl)-4,5,6,7-tetrahydro-1H-imidazo[4,5-c]pyridine]	> 5000
CC(C)(C)c1nnc(C(=O)N2CCc3[nH]cnc3[C@H]2c2cc3c(OC(F)(F)F)cccn3n2)o1 [Example 1759, (S)-(5-(tert-butyl)-1,3,4-oxadiazol-2-yl)(4-(4-(trifluoromethoxy)pyrazolo[1,5-a]pyridin-2-yl)-6,7-dihydro-1H-imidazo[4,5-c]pyridin-5(4H)-yl)methanone]	500 to 1000
O=C(c1nnc(-c2ccccn2)o1)N1CCc2[nH]cnc2[C@H]1c1cc2c(OC(F)(F)F)cccn2n1 [Example 1760, (S)-(5-(pyridin-2-yl)-1,3,4-oxadiazol-2-yl)(4-(4-(trifluoromethoxy)pyrazolo[1,5-a]pyridin-2-yl)-6,7-dihydro-1H-imidazo[4,5-c]pyridin-5(4H)-yl)methanone]	< 500
FC(F)c1cccn2nc([C@@H]3c4nc[nH]c4CCN3c3ncccn3)cc12 [Example 1762, (S)-4-(4-(difluoromethyl)pyrazolo[1,5-a]pyridin-2-yl)-5-(pyrimidin-2-yl)-4,5,6,7-tetrahydro-1H-imidazo[4,5-c]pyridine]	< 500
FC(F)c1cccn2nc([C@H]3c4nc[nH]c4CCN3c3ncccn3)cc12 [Example 1763, (R)-4-(4-(difluoromethyl)pyrazolo[1,5-a]pyridin-2-yl)-5-(pyrimidin-2-yl)-4,5,6,7-tetrahydro-1H-imidazo[4,5-c]pyridine]	1000 to 5000
FC(F)(F)c1cccc2cc([C@H]3c4nc[nH]c4CCN3c3ncccn3)nn12 [Example 1764, (R)-5-(pyrimidin-2-yl)-4-(7-(trifluoromethyl)pyrazolo[1,5-a]pyridin-2-yl)-4,5,6,7-tetrahydro-1H-imidazo[4,5-c]pyridine]	1000 to 5000
FC(F)(F)c1cccc2cc([C@@H]3c4nc[nH]c4CCN3c3ncccn3)nn12 [Example 1765, (S)-5-(pyrimidin-2-yl)-4-(7-(trifluoromethyl)pyrazolo[1,5-a]pyridin-2-yl)-4,5,6,7-tetrahydro-1H-imidazo[4,5-c]pyridine]	500 to 1000
FC(F)c1cccn2nc([C@@H]3c4nc[nH]c4CCN3c3nnc(C(F)(F)F)o3)cc12 [Example 1767, (S)-2-(4-(4-(difluoromethyl)pyrazolo[1,5-a]pyridin-2-yl)-6,7-dihydro-1H-imidazo[4,5-c]pyridin-5(4H)-yl)-5-(trifluoromethyl)-1,3,4-oxadiazole]	< 500
O=C(c1cnn2cc(C3CC3)ccc12)N1CCc2[nH]cnc2[C@H]1c1cc2c(Cl)cccn2n1 [Example 1768, (S)-(4-(4-chloropyrazolo[1,5-a]pyridin-2-yl)-6,7-dihydro-1H-imidazo[4,5-c]pyridin-5(4H)-yl)(6-cyclopropylpyrazolo[1,5-a]pyridin-3-yl)methanone]	< 500
O=C(c1cnn2cc(C3CC3)ccc12)N1CCc2[nH]cnc2[C@@H]1c1cc2c(Cl)cccn2n1 [Example 1769, (R)-(4-(4-chloropyrazolo[1,5-a]pyridin-2-yl)-6,7-dihydro-1H-imidazo[4,5-c]pyridin-5(4H)-yl)(6-cyclopropylpyrazolo[1,5-a]pyridin-3-yl)methanone]	1000 to 5000
CN(C)c1ccc2c(C(=O)N3CCc4[nH]cnc4[C@H]3c3cc4c(C(F)F)cccn4n3)cnn2c1 [Example 1770, (S)-(4-(4-(difluoromethyl)pyrazolo[1,5-a]pyridin-2-yl)-6,7-dihydro-1H-imidazo[4,5-c]pyridin-5(4H)-yl)(6-(dimethylamino)pyrazolo[1,5-a]pyridin-3-yl)methanone]	500 to 1000
CN(C)c1ccc2c(C(=O)N3CCc4[nH]cnc4[C@@H]3c3cc4c(C(F)F)cccn4n3)cnn2c1 [Example 1771, (R)-(4-(4-(difluoromethyl)pyrazolo[1,5-a]pyridin-2-yl)-6,7-dihydro-1H-imidazo[4,5-c]pyridin-5(4H)-yl)(6-(dimethylamino)pyrazolo[1,5-a]pyridin-3-yl)methanone]	> 5000
CN(C)c1ccc2c(C(=O)N3CCc4[nH]cnc4[C@@H]3c3cc4c(F)cccn4n3)cnn2c1 [Example 1773, (R)-(6-(dimethylamino)pyrazolo[1,5-a]pyridin-3-yl)(4-(4-fluoropyrazolo[1,5-a]pyridin-2-yl)-6,7-dihydro-1H-imidazo[4,5-c]pyridin-5(4H)-yl)methanone]	> 5000
FC(F)(F)c1cnc(N2CCc3[nH]cnc3[C@H]2c2cc3c(C(F)(F)F)cccn3n2)nc1 [Example 1774, (S)-4-(4-(trifluoromethyl)pyrazolo[1,5-a]pyridin-2-yl)-5-(5-(trifluoromethyl)pyrimidin-2-yl)-4,5,6,7-tetrahydro-1H-imidazo[4,5-c]pyridine]	< 500
FC(F)(F)c1cnc(N2CCc3[nH]cnc3[C@@H]2c2cc3c(C(F)(F)F)cccn3n2)nc1 [Example 1775, (R)-4-(4-(trifluoromethyl)pyrazolo[1,5-a]pyridin-2-yl)-5-(5-(trifluoromethyl)pyrimidin-2-yl)-4,5,6,7-tetrahydro-1H-imidazo[4,5-c]pyridine]	> 5000
FC(F)c1cccn2nc([C@@H]3c4nc[nH]c4CCN3c3ncc(C(F)(F)F)cn3)cc12 [Example 1776, (S)-4-(4-(difluoromethyl)pyrazolo[1,5-a]pyridin-2-yl)-5-(5-(trifluoromethyl)pyrimidin-2-yl)-4,5,6,7-tetrahydro-1H-imidazo[4,5-c]pyridine]	< 500
FC(F)c1cccn2nc([C@H]3c4nc[nH]c4CCN3c3ncc(C(F)(F)F)cn3)cc12 [Example 1777, (R)-4-(4-(difluoromethyl)pyrazolo[1,5-a]pyridin-2-yl)-5-(5-(trifluoromethyl)pyrimidin-2-yl)-4,5,6,7-tetrahydro-1H-imidazo[4,5-c]pyridine]	> 5000
FC(F)(F)c1cnc(N2CCc3[nH]cnc3[C@H]2c2cc3c(Cl)cccn3n2)nc1 [Example 1780, (S)-4-(4-chloropyrazolo[1,5-a]pyridin-2-yl)-5-(5-(trifluoromethyl)pyrimidin-2-yl)-4,5,6,7-tetrahydro-1H-imidazo[4,5-c]pyridine]	< 500
FC(F)(F)c1cnc(N2CCc3[nH]cnc3[C@@H]2c2cc3c(Cl)cccn3n2)nc1 [Example 1781, (R)-4-(4-chloropyrazolo[1,5-a]pyridin-2-yl)-5-(5-(trifluoromethyl)pyrimidin-2-yl)-4,5,6,7-tetrahydro-1H-imidazo[4,5-c]pyridine]	> 5000
O=C(c1nnc(-c2cnn(C(F)F)c2)o1)N1CCc2[nH]cnc2[C@H]1c1cc2c(OC(F)(F)F)cccn2n1 [Example 1782, (S)-(5-(1-(difluoromethyl)-1H-pyrazol-4-yl)-1,3,4-oxadiazol-2-yl)(4-(4-(trifluoromethoxy)pyrazolo[1,5-a]pyridin-2-yl)-6,7-dihydro-1H-imidazo[4,5-c]pyridin-5(4H)-yl)methanone]	500 to 1000
